Laboratory results as given in the NIST ThermoML archive (doi:10.1021/je020189p).
Where “and” joins values, the source holds several entries; their conditions need not be identical. Equal values may be shown once.

[Br][Gd]([Br])[Br] [gadolinium bromide (GdBr3)]
Conditions | vapor or sublimation pressure
895 K, Crystal | 3.31e-05 kPa
910 K, Crystal | 4.17e-05 kPa
914 K, Crystal | 6.31e-05 kPa
917 K, Crystal | 7.76e-05 kPa
919 K, Crystal | 8.91e-05 kPa
920 K, Crystal | 7.76e-05 kPa
926 K, Crystal | 0.000112 kPa
928 K, Crystal | 7.76e-05 kPa
929 K, Crystal | 0.000105 kPa
932 K, Crystal | 0.000138 kPa
934 K, Crystal | 0.000135 kPa
937 K, Crystal | 0.000166 kPa
941 K, Crystal | 0.00017 kPa
945 K, Crystal | 0.000155 kPa and 0.000204 kPa
947 K, Crystal | 0.000234 kPa
951 K, Crystal | 0.000251 kPa and 0.000141 kPa
953 K, Crystal | 0.000324 kPa
956 K, Crystal | 0.000282 kPa and 0.000302 kPa
957 K, Crystal | 0.000331 kPa and 0.000224 kPa
959 K, Crystal | 0.000324 kPa
962 K, Crystal | 0.000447 kPa
964 K, Crystal | 0.000398 kPa
965 K, Crystal | 0.000389 kPa
967 K, Crystal | 0.000468 kPa
968 K, Crystal | 0.000324 kPa and 0.000282 kPa
969 K, Crystal | 0.000468 kPa and 0.000575 kPa
971 K, Crystal | 0.00049 kPa
973 K, Crystal | 0.00055 kPa
974 K, Crystal | 0.00055 kPa
977 K, Crystal | 0.000759 kPa
979 K, Crystal | 0.000468 kPa and 0.000676 kPa and 0.000427 kPa
980 K, Crystal | 0.000759 kPa
981 K, Crystal | 0.000708 kPa
983 K, Crystal | 0.000794 kPa
984 K, Crystal | 0.000562 kPa
986 K, Crystal | 0.000891 kPa
987 K, Crystal | 0.001 kPa
988 K, Crystal | 0.000933 kPa
989 K, Crystal | 0.000708 kPa
990 K, Crystal | 0.00107 kPa and 0.000617 kPa and 0.00115 kPa
993 K, Crystal | 0.0011 kPa
994 K, Crystal | 0.0011 kPa
996 K, Crystal | 0.00123 kPa
997 K, Crystal | 0.00145 kPa
999 K, Crystal | 0.00102 kPa and 0.00155 kPa
1000 K, Crystal | 0.00138 kPa
1001 K, Crystal | 0.00155 kPa
1002 K, Crystal | 0.000912 kPa
1003 K, Crystal | 0.00148 kPa
1004 K, Crystal | 0.00158 kPa
1006 K, Crystal | 0.00162 kPa
1008 K, Crystal | 0.00141 kPa and 0.002 kPa
1011 K, Crystal | 0.00219 kPa and 0.002 kPa
1012 K, Crystal | 0.00195 kPa
1014 K, Crystal | 0.00245 kPa and 0.00219 kPa and 0.00135 kPa
1015 K, Crystal | 0.0017 kPa and 0.00219 kPa
1018 K, Crystal | 0.00191 kPa and 0.00275 kPa
1019 K, Crystal | 0.00251 kPa
1020 K, Crystal | 0.00288 kPa
1023 K, Crystal | 0.00219 kPa and 0.00275 kPa
1025 K, Crystal | 0.00302 kPa
1026 K, Crystal | 0.002 kPa and 0.00347 kPa
1029 K, Crystal | 0.00372 kPa and 0.00275 kPa
1030 K, Crystal | 0.00363 kPa
1032 K, Crystal | 0.00295 kPa and 0.00372 kPa
1034 K, Crystal | 0.00398 kPa
1035 K, Crystal | 0.00339 kPa
1036 K, Crystal | 0.00468 kPa
1041 K, Crystal | 0.00513 kPa and 0.00316 kPa
1043 K, Crystal | 0.00513 kPa
1045 K, Crystal | 0.00575 kPa
1049 K, Crystal | 0.00661 kPa and 0.00417 kPa
1051 K, Crystal | 0.00661 kPa
1057 K, Crystal | 0.00776 kPa and 0.00832 kPa and 0.00525 kPa
1060 K, Liquid | 0.00646 kPa
1067 K, Liquid | 0.00933 kPa
1073 K, Liquid | 0.00851 kPa
1074 K, Liquid | 0.00741 kPa
1078 K, Liquid | 0.012 kPa
1085 K, Liquid | 0.0117 kPa
1087 K, Liquid | 0.0145 kPa
1091 K, Liquid | 0.0115 kPa
1096 K, Liquid | 0.0158 kPa
1098 K, Liquid | 0.0191 kPa
1099 K, Liquid | 0.0138 kPa
1105 K, Liquid | 0.0204 kPa
1108 K, Liquid | 0.0178 kPa and 0.0234 kPa
1114 K, Liquid | 0.024 kPa
1119 K, Liquid | 0.0229 kPa and 0.0302 kPa
1123 K, Liquid | 0.0282 kPa
1128 K, Liquid | 0.0372 kPa
1130 K, Liquid | 0.0302 kPa
1138 K, Liquid | 0.0468 kPa
1140 K, Liquid | 0.0427 kPa and 0.038 kPa
1148 K, Liquid | 0.0513 kPa
1150 K, Liquid | 0.049 kPa and 0.0617 kPa
1155 K, Liquid | 0.0617 kPa
1159 K, Liquid | 0.0589 kPa
1161 K, Liquid | 0.0794 kPa
1168 K, Liquid | 0.0708 kPa
1169 K, Liquid | 0.0912 kPa
1179 K, Liquid | 0.0912 kPa

[I][Gd]([I])[I] [gadolinium triiodide]
Crystal
Conditions | vapor or sublimation pressure
890 K | 4.47e-05 kPa
891 K | 5.62e-05 kPa
901 K | 6.76e-05 kPa and 8.32e-05 kPa and 5.62e-05 kPa
905 K | 8.51e-05 kPa
911 K | 0.000112 kPa
912 K | 8.91e-05 kPa
913 K | 0.000112 kPa
914 K | 0.000138 kPa and 8.91e-05 kPa
916 K | 0.000112 kPa
918 K | 0.000135 kPa
919 K | 0.000155 kPa
920 K | 0.000112 kPa
922 K | 0.000178 kPa
924 K | 0.000123 kPa
925 K | 0.000178 kPa
927 K | 0.000174 kPa and 0.000151 kPa
928 K | 0.000145 kPa and 0.000195 kPa and 0.000209 kPa
929 K | 0.000234 kPa
933 K | 0.000191 kPa
934 K | 0.000269 kPa
936 K | 0.0002 kPa
937 K | 0.000282 kPa and 0.000251 kPa
938 K | 0.000324 kPa
939 K | 0.000295 kPa
942 K | 0.000347 kPa and 0.000269 kPa
943 K | 0.000245 kPa
944 K | 0.000355 kPa
946 K | 0.000398 kPa
947 K | 0.000389 kPa
948 K | 0.000372 kPa
951 K | 0.000331 kPa
952 K | 0.00049 kPa
954 K | 0.000417 kPa
955 K | 0.000525 kPa and 0.000603 kPa
957 K | 0.000575 kPa and 0.000457 kPa
959 K | 0.000447 kPa
962 K | 0.000708 kPa
964 K | 0.000794 kPa
966 K | 0.000575 kPa and 0.000794 kPa and 0.000631 kPa
967 K | 0.000724 kPa
970 K | 0.000912 kPa
973 K | 0.00107 kPa
974 K | 0.00102 kPa
975 K | 0.00107 kPa and 0.000891 kPa
978 K | 0.000832 kPa and 0.00107 kPa
979 K | 0.00126 kPa
983 K | 0.00135 kPa and 0.00115 kPa
984 K | 0.00145 kPa
985 K | 0.00158 kPa
987 K | 0.00162 kPa
988 K | 0.00115 kPa
990 K | 0.00155 kPa
992 K | 0.00174 kPa and 0.00141 kPa
993 K | 0.00191 kPa and 0.00204 kPa
995 K | 0.00214 kPa
997 K | 0.00138 kPa
1002 K | 0.00251 kPa and 0.00219 kPa
1003 K | 0.00269 kPa
1006 K | 0.00191 kPa
1011 K | 0.00331 kPa and 0.00282 kPa
1012 K | 0.00355 kPa
1019 K | 0.00339 kPa
1021 K | 0.00389 kPa
1023 K | 0.00676 kPa
1026 K | 0.00407 kPa
1033 K | 0.00871 kPa and 0.00537 kPa
1040 K | 0.00603 kPa
1042 K | 0.00692 kPa
1045 K | 0.0126 kPa
1052 K | 0.00871 kPa
1054 K | 0.00977 kPa
1055 K | 0.017 kPa
1064 K | 0.0219 kPa
1066 K | 0.0135 kPa and 0.0145 kPa
1074 K | 0.0302 kPa
1076 K | 0.0209 kPa
1082 K | 0.0214 kPa
1083 K | 0.0398 kPa
1086 K | 0.0282 kPa
1094 K | 0.0537 kPa
1097 K | 0.0372 kPa
1102 K | 0.0676 kPa

[Cl-].[Cl-].[Cl-].[Gd+3] [gadolinium(III) chloride]
Liquid
Conditions | vapor or sublimation pressure
930 K | 3.31e-05 kPa
952 K | 6.76e-05 kPa
957 K | 8.32e-05 kPa
958 K | 6.31e-05 kPa
965 K | 7.76e-05 kPa
970 K | 0.000129 kPa
973 K | 9.77e-05 kPa
983 K | 0.000141 kPa and 0.000178 kPa
994 K | 0.000195 kPa
996 K | 0.000224 kPa
1002 K | 0.000324 kPa
1004 K | 0.000251 kPa
1011 K | 0.000331 kPa
1015 K | 0.000355 kPa
1022 K | 0.000562 kPa
1023 K | 0.000479 kPa
1024 K | 0.00049 kPa
1042 K | 0.000794 kPa
1044 K | 0.001 kPa
1046 K | 0.001 kPa
1052 K | 0.00102 kPa
1054 K | 0.00141 kPa
1061 K | 0.00135 kPa
1062 K | 0.00138 kPa
1071 K | 0.00174 kPa
1076 K | 0.00219 kPa
1082 K | 0.00234 kPa
1086 K | 0.00269 kPa
1090 K | 0.00275 kPa
1091 K | 0.00339 kPa
1093 K | 0.00302 kPa
1099 K | 0.00339 kPa
1103 K | 0.00437 kPa
1107 K | 0.00417 kPa
1113 K | 0.00575 kPa
1116 K | 0.00513 kPa
1117 K | 0.00603 kPa
1120 K | 0.00589 kPa and 0.00603 kPa
1126 K | 0.00759 kPa and 0.00661 kPa
1134 K | 0.00871 kPa
1135 K | 0.00794 kPa
1138 K | 0.00977 kPa
1144 K | 0.01 kPa
1147 K | 0.0129 kPa
1151 K | 0.0126 kPa
1154 K | 0.0132 kPa
1156 K | 0.0158 kPa
1165 K | 0.0182 kPa
1170 K | 0.0219 kPa
1177 K | 0.024 kPa
1187 K | 0.0324 kPa
1190 K | 0.0316 kPa
1203 K | 0.0407 kPa
1213 K | 0.0501 kPa
